Measured values: ChEMBL document CHEMBL1201862, “PubChem BioAssay data set” (2004)
The source made the active and inactive calls.

Tests used:
[1] = biological target: Peroxisome proliferator-activated receptor gamma/Nuclear receptor coactivator 2 (Homo sapiens, UniProt P37231); type: functional;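 further: agonist potency for raising coactivator recruitment to the receptor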
[2] = biological target: Peroxisome proliferator-activated receptor gamma/Nuclear receptor coactivator 1 (Homo sapiens, UniProt P37231); type: functional;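 further: agonist potency as compounds enhance coactivator SRC-1 recruitment to PPARgamma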
[3] = biological target: Peroxisome proliferator-activated receptor gamma/Nuclear receptor coactivator 3 (Homo sapiens, UniProt P37231); type: functional;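 further: agonist potency for raising coactivator recruitment to the receptor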
Chain of Peroxisome proliferator-activated receptor gamma/Nuclear receptor coactivator 3 (P37231 whole entry): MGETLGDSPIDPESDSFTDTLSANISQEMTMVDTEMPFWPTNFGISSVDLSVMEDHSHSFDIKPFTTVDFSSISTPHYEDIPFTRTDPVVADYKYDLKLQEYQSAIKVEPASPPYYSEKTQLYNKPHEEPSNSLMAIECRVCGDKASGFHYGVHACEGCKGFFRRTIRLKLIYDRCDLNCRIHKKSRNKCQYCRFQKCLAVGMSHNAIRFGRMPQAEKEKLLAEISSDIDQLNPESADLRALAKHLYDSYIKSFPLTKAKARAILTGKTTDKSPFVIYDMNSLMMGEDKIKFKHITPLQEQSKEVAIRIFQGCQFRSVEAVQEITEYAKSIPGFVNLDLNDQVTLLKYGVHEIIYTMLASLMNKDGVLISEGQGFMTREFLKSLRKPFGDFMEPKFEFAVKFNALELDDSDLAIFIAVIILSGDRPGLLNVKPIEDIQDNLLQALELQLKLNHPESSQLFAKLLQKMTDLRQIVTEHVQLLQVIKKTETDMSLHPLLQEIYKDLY
Chain of Peroxisome proliferator-activated receptor gamma/Nuclear receptor coactivator 3 (Q9Y6Q9 whole entry, further chain): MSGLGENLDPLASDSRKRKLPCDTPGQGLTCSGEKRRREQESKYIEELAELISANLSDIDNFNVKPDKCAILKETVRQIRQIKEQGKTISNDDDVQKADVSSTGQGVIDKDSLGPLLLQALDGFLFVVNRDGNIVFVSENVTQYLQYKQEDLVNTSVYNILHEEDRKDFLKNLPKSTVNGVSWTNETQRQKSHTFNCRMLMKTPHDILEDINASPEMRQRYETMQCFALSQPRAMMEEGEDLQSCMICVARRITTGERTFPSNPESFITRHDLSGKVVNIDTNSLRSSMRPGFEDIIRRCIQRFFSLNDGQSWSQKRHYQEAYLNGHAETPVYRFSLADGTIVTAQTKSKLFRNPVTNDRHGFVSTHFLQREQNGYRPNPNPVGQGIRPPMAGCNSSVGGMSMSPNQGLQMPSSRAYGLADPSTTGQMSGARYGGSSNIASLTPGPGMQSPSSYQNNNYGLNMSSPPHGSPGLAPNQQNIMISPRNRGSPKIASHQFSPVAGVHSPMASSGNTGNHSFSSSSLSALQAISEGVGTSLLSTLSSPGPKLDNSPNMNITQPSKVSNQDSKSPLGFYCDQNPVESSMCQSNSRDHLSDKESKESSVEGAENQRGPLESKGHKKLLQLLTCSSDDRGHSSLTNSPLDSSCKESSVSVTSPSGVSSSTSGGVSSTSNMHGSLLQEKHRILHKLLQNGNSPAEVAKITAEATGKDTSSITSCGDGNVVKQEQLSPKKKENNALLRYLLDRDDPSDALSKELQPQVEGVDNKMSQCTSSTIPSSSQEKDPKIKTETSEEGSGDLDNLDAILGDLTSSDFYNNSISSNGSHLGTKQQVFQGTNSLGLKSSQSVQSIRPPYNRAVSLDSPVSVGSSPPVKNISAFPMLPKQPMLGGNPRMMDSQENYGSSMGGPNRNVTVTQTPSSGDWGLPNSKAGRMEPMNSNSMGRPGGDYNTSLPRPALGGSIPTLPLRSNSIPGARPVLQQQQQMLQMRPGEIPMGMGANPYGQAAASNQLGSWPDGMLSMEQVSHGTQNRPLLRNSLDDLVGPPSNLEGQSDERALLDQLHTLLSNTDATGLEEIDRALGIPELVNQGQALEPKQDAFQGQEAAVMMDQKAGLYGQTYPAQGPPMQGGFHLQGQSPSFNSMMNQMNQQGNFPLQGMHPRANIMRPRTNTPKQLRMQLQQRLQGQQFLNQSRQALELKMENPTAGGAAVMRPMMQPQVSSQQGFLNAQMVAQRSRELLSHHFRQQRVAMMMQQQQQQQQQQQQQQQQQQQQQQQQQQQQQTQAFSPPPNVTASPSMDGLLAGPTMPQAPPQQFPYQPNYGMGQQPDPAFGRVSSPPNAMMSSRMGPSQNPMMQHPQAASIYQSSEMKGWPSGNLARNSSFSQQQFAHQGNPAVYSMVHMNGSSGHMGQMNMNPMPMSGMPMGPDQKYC

[4] = Trypanosoma cruzi growth suppression in host cells – NIH3T3 host cells, beta-gal luminescence, confirmation (AID 2044); type: functional, cell-based;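 further: intracellular parasites grown in NIH/3T3 mouse fibroblasts as host cells; luminescent beta-galactosidase reporter signal from transgenic T. cruzi replicating inside host cells; inhibitors lower the luminescence signal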
[5] = NIH3T3 cell viability loss – ATP luminescence, mouse fibroblasts, counter-screen, dose response (AID 2010); type: functional, cell-based;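 further: cells exposed to compound for about 90 hours before reading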
[6] = biological target: T1, Hexokinase (Trypanosoma brucei, UniProt Q38C41); assay: Confirmation assay for inhibitors of Trypanosoma brucei hexokinase 1-Analogue-first series. [Related pubchem assays (depositor defined):AID1430, AID1632, AID2516, AID2560, AID2579, AID2600, AID449725, AID492951]; type: functional
T1 sequence (Q38C41 whole entry): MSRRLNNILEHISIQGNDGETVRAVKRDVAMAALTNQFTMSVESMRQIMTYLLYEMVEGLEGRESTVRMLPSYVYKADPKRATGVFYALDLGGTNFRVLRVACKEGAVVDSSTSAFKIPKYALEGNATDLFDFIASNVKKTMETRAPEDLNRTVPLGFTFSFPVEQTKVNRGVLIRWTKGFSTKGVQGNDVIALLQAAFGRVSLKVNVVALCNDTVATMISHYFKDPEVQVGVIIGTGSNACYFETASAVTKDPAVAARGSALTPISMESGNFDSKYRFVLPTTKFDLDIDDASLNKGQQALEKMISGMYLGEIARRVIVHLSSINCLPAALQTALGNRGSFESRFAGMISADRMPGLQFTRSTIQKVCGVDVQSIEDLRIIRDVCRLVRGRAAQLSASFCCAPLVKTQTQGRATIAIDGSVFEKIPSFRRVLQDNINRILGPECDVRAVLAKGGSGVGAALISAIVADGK

[7] = NIH-3T3 fibroblast cytotoxicity, dose response, cytotoxicity control, cell-based, fluorescence, Alamar Blue, secondary assay (AID 2327); type: functional;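 further: NIH-3T3 mouse fibroblasts cultured with fluconazole at 8 µg/mL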
[8] = test system: Streptococcus sp. 'group A'; assay: Streptococcus pyogenes SK(-)GAS viability under kanamycin – luminescence, BacTiterGlo, confirmation, counter-screen for streptokinase expression inhibitor project, dose response (AID 1900); type: functional, organism-based
[9] = biological target: T2, Streptokinase A (Streptococcus pyogenes serotype M1, UniProt P10520); assay: viability-normalized secreted streptokinase activity reduction – plasminogen activation absorbance, OD405, dose response (AID 1914); type: functional, Streptococcus pyogenes M1 GAS;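 further: secreted streptokinase activity via plasminogen activation per viability signal from cell pellet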
T2 sequence (P10520 whole entry): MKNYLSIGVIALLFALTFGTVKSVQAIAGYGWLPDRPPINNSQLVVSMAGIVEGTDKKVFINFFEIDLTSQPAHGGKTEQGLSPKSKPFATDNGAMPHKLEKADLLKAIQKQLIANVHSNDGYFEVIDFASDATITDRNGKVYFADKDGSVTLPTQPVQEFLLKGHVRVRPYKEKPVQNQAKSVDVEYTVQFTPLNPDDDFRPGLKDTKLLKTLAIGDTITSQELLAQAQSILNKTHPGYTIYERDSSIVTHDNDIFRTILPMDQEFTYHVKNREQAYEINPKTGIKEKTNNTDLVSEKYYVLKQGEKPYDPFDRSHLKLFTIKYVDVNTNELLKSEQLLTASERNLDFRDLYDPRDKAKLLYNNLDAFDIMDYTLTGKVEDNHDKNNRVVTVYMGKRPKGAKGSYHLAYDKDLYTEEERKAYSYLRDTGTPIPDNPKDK

[10] = fluconazole-exposed Candida albicans growth modulators – fluorescence, retest, confirmation (AID 2467); type: functional, cell-based
[11] = mitochondrial function rescue without frataxin homolog – Friedreich's ataxia, plus single-dose screen, dose response (AID 1465); type: functional;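 further: yeast depleted of Yfh1p frataxin homolog grown on glycerol needing respiration; WST-1 tetrazolium dye reduction as measure of cellular dehydrogenase metabolic activity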
[12] = test system: Streptococcus; assay: GAS UMAA2166 growth inhibition – luminescence, BacTiterGlo, counter-screen for streptokinase expression inhibitor project, dose response (AID 1915); type: functional, organism-based;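 further: potency for reduction of bacterial viability or growth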
[13] = biological target: T3, Short transient receptor potential channel 4 (Mus musculus, UniProt Q9QUQ5); assay: calcium entry via TRPC4 opening agents – cell-based, HEK293 TRPC4/mu-opioid, Fluo-4 calcium, dose response (AID 434937); type: functional
T3 sequence (Q9QUQ5 whole entry): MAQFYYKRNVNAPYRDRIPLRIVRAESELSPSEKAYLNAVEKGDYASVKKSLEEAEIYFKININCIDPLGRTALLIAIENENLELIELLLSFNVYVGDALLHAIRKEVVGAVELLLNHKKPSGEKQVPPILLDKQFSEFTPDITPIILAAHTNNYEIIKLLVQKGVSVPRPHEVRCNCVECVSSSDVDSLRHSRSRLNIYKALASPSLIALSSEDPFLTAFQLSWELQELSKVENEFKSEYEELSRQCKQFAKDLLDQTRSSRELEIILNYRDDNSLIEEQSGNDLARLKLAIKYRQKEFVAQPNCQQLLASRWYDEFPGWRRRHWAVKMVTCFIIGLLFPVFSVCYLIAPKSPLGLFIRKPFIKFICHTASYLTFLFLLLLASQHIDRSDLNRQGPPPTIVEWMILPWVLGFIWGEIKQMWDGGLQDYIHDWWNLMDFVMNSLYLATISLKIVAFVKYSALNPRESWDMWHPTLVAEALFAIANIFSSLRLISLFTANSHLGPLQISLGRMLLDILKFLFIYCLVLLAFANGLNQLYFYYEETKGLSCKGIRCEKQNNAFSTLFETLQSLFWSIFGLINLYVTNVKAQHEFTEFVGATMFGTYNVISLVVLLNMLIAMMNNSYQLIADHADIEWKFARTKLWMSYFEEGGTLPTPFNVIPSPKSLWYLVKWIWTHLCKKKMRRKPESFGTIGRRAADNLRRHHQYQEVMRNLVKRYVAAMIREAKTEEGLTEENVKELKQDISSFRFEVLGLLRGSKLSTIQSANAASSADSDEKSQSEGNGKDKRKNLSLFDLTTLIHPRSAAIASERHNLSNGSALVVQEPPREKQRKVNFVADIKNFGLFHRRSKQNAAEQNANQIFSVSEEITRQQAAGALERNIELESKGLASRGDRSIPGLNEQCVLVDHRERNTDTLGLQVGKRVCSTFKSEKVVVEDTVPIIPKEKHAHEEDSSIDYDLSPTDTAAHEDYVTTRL

[14] = biological target: G-protein coupled receptor 55 (Homo sapiens, UniProt Q9Y2T6); assay: selective activators of receptor GPR55 – imaging, U2OS cells, beta-arrestin-GFP redistribution, primary screen (AID 1961); type: functional
Chain of G-protein coupled receptor 55 (Q9Y2T6 whole entry): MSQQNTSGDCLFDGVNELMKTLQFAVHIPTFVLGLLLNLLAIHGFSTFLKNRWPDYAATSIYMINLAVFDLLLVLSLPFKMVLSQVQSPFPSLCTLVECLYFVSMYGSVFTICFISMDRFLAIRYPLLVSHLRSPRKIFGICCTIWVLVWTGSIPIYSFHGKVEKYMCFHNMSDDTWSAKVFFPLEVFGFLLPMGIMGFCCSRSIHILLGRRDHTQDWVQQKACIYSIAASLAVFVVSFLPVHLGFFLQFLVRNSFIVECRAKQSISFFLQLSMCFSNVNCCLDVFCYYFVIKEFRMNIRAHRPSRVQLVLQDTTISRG

[15] = biological target: T4, Aminopeptidase N (Plasmodium falciparum FcB1/Columbia, UniProt O96935); assay: malaria alanyl aminopeptidase activity blockers – biochemical, fluorogenic H-Leu-NHMec substrate, 1536-well (AID 1445); parameters: species or system Plasmodium falciparum 3D7, 3D7
T4 sequence (O96935 whole entry): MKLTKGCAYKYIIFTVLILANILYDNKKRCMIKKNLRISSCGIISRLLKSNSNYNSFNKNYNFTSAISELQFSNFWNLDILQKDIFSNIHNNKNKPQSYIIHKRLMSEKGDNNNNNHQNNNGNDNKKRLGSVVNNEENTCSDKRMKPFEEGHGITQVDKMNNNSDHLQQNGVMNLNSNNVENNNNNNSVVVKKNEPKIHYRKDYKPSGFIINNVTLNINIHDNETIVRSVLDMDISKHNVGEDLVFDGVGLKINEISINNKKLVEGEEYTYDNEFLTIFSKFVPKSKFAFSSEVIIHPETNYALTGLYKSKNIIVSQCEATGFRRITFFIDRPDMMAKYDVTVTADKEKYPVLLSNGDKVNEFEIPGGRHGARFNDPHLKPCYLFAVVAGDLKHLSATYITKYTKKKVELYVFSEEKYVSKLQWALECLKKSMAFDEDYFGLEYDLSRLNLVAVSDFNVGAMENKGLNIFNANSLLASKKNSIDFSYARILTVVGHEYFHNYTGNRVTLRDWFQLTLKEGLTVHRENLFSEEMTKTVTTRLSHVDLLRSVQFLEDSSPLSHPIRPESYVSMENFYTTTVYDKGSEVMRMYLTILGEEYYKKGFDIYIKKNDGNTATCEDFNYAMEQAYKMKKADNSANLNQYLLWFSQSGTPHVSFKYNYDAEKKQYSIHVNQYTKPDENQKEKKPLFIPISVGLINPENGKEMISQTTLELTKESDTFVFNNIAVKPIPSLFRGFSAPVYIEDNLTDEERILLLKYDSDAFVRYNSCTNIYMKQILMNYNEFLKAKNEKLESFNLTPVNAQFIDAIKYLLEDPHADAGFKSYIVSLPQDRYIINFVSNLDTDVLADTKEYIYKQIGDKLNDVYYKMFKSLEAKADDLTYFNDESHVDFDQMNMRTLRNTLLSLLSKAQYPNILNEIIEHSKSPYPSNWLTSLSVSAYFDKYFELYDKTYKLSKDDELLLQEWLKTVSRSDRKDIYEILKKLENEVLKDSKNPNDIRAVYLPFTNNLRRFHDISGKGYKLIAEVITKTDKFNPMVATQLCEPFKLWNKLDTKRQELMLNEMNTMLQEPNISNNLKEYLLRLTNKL

[16] = biological target: Large T antigen (Simian virus 40, UniProt P03070); type: functional, Betapolyomavirus macacae;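 further: Confirmatory-stage PubChem screen for compounds that inhibit SV40 T antigen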
Chain of Large T antigen (P03070 whole entry): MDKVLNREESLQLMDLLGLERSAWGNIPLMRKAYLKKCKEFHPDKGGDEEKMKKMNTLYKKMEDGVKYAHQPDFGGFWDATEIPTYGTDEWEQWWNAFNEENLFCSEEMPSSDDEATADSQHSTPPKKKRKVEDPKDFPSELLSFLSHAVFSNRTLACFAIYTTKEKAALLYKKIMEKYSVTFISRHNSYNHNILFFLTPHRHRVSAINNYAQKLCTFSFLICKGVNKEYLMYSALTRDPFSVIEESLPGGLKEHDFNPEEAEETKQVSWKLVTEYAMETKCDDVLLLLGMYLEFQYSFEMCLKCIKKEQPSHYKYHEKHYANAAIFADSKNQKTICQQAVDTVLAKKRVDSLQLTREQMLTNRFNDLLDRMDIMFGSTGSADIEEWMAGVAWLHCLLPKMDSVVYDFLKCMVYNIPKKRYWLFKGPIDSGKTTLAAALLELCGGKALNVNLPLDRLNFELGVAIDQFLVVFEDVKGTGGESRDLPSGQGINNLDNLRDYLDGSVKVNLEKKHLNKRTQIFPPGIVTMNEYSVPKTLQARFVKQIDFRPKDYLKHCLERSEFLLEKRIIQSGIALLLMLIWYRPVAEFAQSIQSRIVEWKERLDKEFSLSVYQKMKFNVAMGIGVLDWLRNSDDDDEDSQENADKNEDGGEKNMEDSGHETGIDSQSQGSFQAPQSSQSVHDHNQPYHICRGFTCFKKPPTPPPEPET

[17] = biological target: T5, Cytochrome P450 1A2 (Homo sapiens, UniProt P05177);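 further: PubChem cytochrome P450 panel assay, CYP1A2 panel member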
T5 sequence (P05177 whole entry): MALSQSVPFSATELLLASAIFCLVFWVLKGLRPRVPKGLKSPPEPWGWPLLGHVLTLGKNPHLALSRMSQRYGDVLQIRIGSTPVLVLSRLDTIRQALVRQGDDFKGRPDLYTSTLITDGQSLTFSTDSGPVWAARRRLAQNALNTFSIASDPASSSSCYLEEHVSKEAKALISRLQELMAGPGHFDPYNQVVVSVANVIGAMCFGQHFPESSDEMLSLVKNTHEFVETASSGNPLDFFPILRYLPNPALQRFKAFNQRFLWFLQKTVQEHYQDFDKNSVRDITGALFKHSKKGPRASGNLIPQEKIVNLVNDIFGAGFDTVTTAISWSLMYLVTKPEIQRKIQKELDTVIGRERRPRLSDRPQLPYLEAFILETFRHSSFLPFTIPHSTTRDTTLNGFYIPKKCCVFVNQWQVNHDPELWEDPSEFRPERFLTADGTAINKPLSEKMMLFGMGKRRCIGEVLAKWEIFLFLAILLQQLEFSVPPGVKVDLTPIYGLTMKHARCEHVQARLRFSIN

[18] = biological target: T6, Cytochrome P450 3A4 (Homo sapiens, UniProt P08684)
T6 sequence (P08684 whole entry): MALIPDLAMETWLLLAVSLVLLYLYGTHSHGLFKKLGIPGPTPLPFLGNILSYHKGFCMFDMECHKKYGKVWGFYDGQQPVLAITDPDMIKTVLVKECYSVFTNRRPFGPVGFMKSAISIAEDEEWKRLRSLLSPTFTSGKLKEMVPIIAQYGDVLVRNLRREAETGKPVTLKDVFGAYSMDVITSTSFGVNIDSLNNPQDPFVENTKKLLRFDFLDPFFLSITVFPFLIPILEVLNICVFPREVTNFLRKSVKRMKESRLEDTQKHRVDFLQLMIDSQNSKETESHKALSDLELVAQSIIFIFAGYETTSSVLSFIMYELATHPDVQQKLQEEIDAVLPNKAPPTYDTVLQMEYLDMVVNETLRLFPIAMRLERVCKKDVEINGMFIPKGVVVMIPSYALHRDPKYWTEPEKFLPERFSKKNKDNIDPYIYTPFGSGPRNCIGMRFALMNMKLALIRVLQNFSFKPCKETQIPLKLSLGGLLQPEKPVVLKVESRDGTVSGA

[19] = biological target: Cytochrome P450 2D6 (Homo sapiens, UniProt P10635); assay: qHTS Assay for Inhibitors and Substrates of Cytochrome P450 2D6. [Related pubchem assays: 410 ]; type: ADME; details: read-out: Potency
Chain of Cytochrome P450 2D6 (P10635 whole entry): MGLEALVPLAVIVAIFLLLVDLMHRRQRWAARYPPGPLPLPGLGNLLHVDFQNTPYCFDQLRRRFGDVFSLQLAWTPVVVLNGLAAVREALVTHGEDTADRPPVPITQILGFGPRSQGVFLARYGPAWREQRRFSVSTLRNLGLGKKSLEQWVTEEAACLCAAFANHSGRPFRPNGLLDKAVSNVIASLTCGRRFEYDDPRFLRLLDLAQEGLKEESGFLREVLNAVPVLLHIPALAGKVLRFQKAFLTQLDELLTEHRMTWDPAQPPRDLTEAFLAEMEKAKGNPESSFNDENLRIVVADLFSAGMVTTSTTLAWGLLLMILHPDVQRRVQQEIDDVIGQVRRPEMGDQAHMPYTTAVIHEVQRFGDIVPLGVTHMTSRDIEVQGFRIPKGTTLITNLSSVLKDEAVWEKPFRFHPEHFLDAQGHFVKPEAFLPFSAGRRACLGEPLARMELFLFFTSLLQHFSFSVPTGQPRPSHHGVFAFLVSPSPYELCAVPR

[20] = biological target: T6, Cytochrome P450 3A4; details: Potency
[21] = viability of uninfected HEp-2 cells – cell-based, HTS, cytotoxicity control for RSV inhibitor project, dose response (AID 2410); type: functional; details: human respiratory syncytial virus
[22] = cells
[23] = biological target: T7, Cytochrome P450 2C9 (Homo sapiens, UniProt P11712); details: Potency
T7 sequence (P11712 whole entry): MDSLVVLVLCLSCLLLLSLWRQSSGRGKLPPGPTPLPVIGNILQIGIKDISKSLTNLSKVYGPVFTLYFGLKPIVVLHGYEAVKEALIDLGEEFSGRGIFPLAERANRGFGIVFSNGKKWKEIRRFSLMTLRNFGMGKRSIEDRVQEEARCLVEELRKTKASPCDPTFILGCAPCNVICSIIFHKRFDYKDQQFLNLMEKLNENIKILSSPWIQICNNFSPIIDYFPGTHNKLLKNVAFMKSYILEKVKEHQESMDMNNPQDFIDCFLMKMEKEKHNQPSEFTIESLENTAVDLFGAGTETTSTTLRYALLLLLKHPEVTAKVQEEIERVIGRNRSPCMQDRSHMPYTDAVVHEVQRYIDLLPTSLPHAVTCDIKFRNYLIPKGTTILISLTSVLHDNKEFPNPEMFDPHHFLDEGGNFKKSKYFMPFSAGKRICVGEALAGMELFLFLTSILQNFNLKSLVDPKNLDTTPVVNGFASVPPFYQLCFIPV

[24] = biological target: T7, Cytochrome P450 2C9

COc1ccc(N2C(=O)/C(=C\NNS(=O)(=O)c3cccc([N+](=O)[O-])c3)c3ccccc3C2=O)cc1OC
EC50 [1]: > 79.4 µM (not active) | EC50 [2]: > 79.4 µM (not active) | EC50 [3]: > 79.4 µM (not active) | EC50 [4]: 18.2 µM (active) | EC50 [5]: > 60 µM (not active)

COc1ccc(C(=O)Nc2ccccc2C(=O)O)cc1
IC50 [6]: > 25 µM (inactive)

CCCCC(=O)NNC(=S)NC(=O)C(c1ccccc1)c1ccccc1
EC50 [7]: 19.6 µM (inconclusive) | EC50 [8]: 0.788 µM (active) | EC50 [9]: > 150 µM (not active) | EC50 [10]: 2.15 µM (active) | EC50 [11]: > 100 µM (active) | EC50 [12]: 25.1 µM (active) | EC50 [13]: 2.66 µM (active)

COc1ccc(C2=NN(c3nc(-c4ccc(CNC(C)=O)cc4)cs3)C(c3ccco3)C2)cc1 (stereo not given)
EC50 [14]: 1.04 µM (active)

CCOC(=O)c1c(N2C(=O)Nc3cc(Cl)c(Cl)cc3N2O)sc2c1CCCCC2
IC50 [15]: 81.7 µM (active) | IC50 [16]: > 100 µM (active) | AC50 [17]: 39.8 µM (inconclusive) | AC50 [18]: 10 µM (inconclusive)

CN(C)C(=O)c1ccc(-c2nc(N(C)C)c3ccccc3n2)cc1
AC50 [19]: 12.6 µM (inconclusive) | AC50 [20]: 1.58 µM (inconclusive)

COCc1nc(-c2cc(OC)c(OC)c(OC)c2)no1
EC50 [14]: > 32 µM (inactive)

C/C=C/c1ccc(OCCOc2cc(C=O)ccc2OC)c(OC)c1
IC50 [15]: 88.9 µM (active)

Cn1c(SCc2cccc3ccccc23)nnc1-c1ccco1
CC50 [21]: > 50 µM (active) | IC50 [22]: 46.5 µM (active)

C=CCC1C=CC(Oc2ccc(OC)cc2)C(COC(=O)c2ccc(Br)cc2)O1 (stereo not given)
AC50 [19]: 6.31 µM (inconclusive) | AC50 [23]: 3.98 µM (inconclusive)

COc1ccc(/C=C/N(CCc2ccc(OC)c(OC)c2)C(=O)C(F)(F)F)cc1
AC50 [19]: 7.94 µM (inconclusive) | AC50 [23]: 3.16 µM (inconclusive)

COc1cc2c(cc1NC(=O)CSc1ccc(C)cc1)oc1ccccc12
CC50 [21]: 28.4 µM (active) | EC50 [14]: 1.15 µM (active)

COc1ccc(C(CN=C(S)NCc2ccccc2)N2CCCC2)cc1 (stereo not given)
IC50 [22]: 24.2 µM (active)

Cc1cc(NC(=O)CSc2nc3ccsc3c(=O)n2NC(=O)c2ccccc2)no1
IC50 [15]: 23.7 µM (active)

Cc1ccc2c(C)c(C(=O)N3CCN(c4ccncc4)CC3)oc2c1C
CC50 [21]: 46.9 µM (active) | IC50 [22]: 23.9 µM (active)

c1ccc(-c2oc3ncnc(NCCCN4CCOCC4)c3c2-c2ccccc2)cc1
EC50 [1]: > 79.4 µM (not active) | EC50 [2]: > 79.4 µM (not active) | EC50 [3]: > 79.4 µM (not active)

CC[C@H](C)N(C)C(=O)c1cc2ccccc2c(-c2ccccc2Cl)n1
AC50 [23]: 15.8 µM (inconclusive) | AC50 [18]: 20 µM (inconclusive) | AC50 [24]: 31.6 µM (inconclusive)
